According to patent publication US20120184548A1, “CARBOXYLIC ACID ARYL AMIDES” (priority 2011, published 2012):

What was measured:
[1] = system: SW620 human colon cancer cells; test: SW620 Cell Viability Assay (CellTiter-Glo); format: cell-based; conditions: SW-620, 96 h, 4 days incubation, read-out: Cellular EC50 SW620
Description: 1. Cell Plate Preparation: SW620 human colon cancer cells (known to express DYRK1B), obtained from ATCC, were seeded into 96-well plates at […] in 50 μL of media. • Harvested the required number of cells (counts & viability determined by Guava Viacount). • Centrifuge cells to pellet and removed supernant. • Resuspended in growth media (50 μL/well) & pipetted thoroughly to break up clumps. • Setup for ˜100 wells/plate, therefore, VT=5 mL/plate @ 1.2×10^5 cells/mL. 1A. Some cells (S-) were allowed to attach for 24 hrs, serum starved for 48 hrs, and then followed with treatments of test compound.
Test Compound solution was prepared in regular corresponding media supplemented with serum
2. Test Compound Preparation: Test compounds were solubilized in either DMSO or media and prepared at various stock concentrations. • All compounds were incubated at 37° C. for 30 minutes and vortexed. • (5 mM stocks of test compound were prepared for non-soluble drugs)
3. Test Compound Plate Preparation:
• The 10 mM test compound stock was diluted to a concentration of 100× the final Cmax concentration. • Then the test compound stock is diluted 50-fold in media and/or second test compound for a final Cmax concentration in the test compound plate. • The Cmax in the test compound plate (2% DMSO) is 2-fold higher than the final Cmax in the cell plate (60 uL titrations were 1:3). 4. Viability Assay: This assay was performed as follows: • Transfer 50 μL of test compound solution per well from the test compound plate onto the cell plate prepared in Step #1. • Mix the plate with treated cells by pipetting up and down three times with 200 μL multi-channel pipet. • Incubate the cells in 5% CO2 incubator @ 37° C. for 4 days. • Run the CellTiter-Glo™ Luminescent Cell Viability Assay. The results of this assay, given as EC50 values, indicate the concentration of test compound that inhibits tumor cell proliferation by 50%.

[2] = target: T1, Human DYRK1B (Homo sapiens, UniProt Q9Y463); test: DYRK1B Kinase TR-FRET (IMAP-Tb) Assay; format: biochemical; conditions: TR-FRET; ATP 70 μM; 37° C. for 60 minutes; averages of multiple runs; read-out: Enzyme IC50 DYRK1B
T1 construct: purchased Invitrogen PR8350B (former PV4649)
T1 sequence (Q9Y463 whole entry): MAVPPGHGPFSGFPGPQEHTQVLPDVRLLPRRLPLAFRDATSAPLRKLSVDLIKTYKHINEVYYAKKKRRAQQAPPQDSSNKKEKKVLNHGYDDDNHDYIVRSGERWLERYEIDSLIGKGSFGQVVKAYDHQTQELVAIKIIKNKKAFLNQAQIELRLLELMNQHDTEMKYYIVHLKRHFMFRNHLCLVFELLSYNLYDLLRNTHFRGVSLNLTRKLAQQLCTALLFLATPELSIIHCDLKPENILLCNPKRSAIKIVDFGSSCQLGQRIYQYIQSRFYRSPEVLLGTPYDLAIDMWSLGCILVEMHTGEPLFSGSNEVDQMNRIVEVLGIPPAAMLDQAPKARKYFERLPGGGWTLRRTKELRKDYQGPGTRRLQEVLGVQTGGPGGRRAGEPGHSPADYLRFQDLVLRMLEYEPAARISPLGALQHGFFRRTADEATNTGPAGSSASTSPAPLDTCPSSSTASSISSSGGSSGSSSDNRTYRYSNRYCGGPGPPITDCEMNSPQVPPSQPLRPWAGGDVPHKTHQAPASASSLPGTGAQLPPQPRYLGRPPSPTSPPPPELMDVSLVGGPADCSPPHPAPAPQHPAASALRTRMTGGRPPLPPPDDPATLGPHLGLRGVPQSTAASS
Text: The kinase TR-FRET (IMAP-Tb) assay uses a fluorescence labeled substrate peptide in the kinase reaction. Upon phosphorylation by the kinase, phosphopeptide is produced, which will be detected by the binding solution provided in IMAP TR-FRET binding kit. After the completion of the kinase reaction, the reaction will be stopped by adding the binding solution containing terbium tracer. This tracer is immobilized on the surface of the IMAP beads, which also contain metal ions on the beads that bind to the phospho-groups of the products. Thus the phosphorylated product of the reaction can enter into close proximity to the tracer, producing resonance energy transfer. Due to the long lifetime of terbium (Tb) fluorescence the detection can be run in time resolved mode, which virtually eliminates fluorescence interference from assay components or compounds. […] IC50 is the amount of test compound that inhibits 50% of the activity of DYRK1B in this assay. […] 1. Human DYRK1B: from Invitrogen. Part # PR8350B (former PV4649) 2. Substrate Peptide: RRRFRPASPLRGPPK 3. IMAP TR-FRET IPP Explorer Kit: from Molecular Devices. Part # R8157 4. Kinase Assay Buffer (KAB): 10 mM HEPES pH 7.0, 50 mM NaCl, 5 mM MgCl2, 1 mM DTT, 1 mM NaVO4, 200 μg/mL BSA (0.02%) 5. Assay Plate: Remp polypropylene clear 384-well microplate. Cat#23490-102 6. Detection Plate: Costa black 384-well microplate. Cat #3710 Assay Procedure: This assay was performed as follows: 1. Transfer 1.5 μL of 20× compound solution to each well of an assay plate. 2. Add to each well 22.5 μL of KAB Buffer. 3. Add to each well 3 μL of the solution of DYRK1B and ATP. […] Add to each well 3 μL of the substrate peptide. […] Incubate the assay plates at 37° C. for 60 minutes. 6. Add 18 μL of Detection Solution (1:800 diluted Progress bead stock, 1:400 diluted Tb stock, 80% Buffer A, and 20% Buffer B) into each well of detection plates. 7. Transfer 6 μL of assay solution from the assay plate to the detection plate. 8. Shake detection plates for 30 minutes. 9. Read plates in Envision with wavelength set at excitation 340 nm for Tb, emission 490 nm, and […]. 10. Calculation: TR-FRET Signal=(Reading at […])×2000000

[3] = target: T2, Human DYRK1A (Homo sapiens, UniProt Q13627); test: DYRK1A Kinase TR-FRET (IMAP-Tb) Assay; format: biochemical; conditions: TR-FRET; ATP 70 μM; 37° C. for 60 minutes; averages of multiple runs; read-out: Enzyme IC50 DYRK1A
T2 construct: purchased Invitrogen PV3997
Text: The kinase TR-FRET (IMAP-Tb) assay uses a fluorescence labeled substrate peptide in the kinase reaction. Upon phosphorylation by the kinase, phosphopeptide is produced, which will be detected by the binding solution provided in IMAP TR-FRET binding kit. After the completion of the kinase reaction, the reaction will be stopped by adding the binding solution containing terbium tracer. This tracer is immobilized on the surface of the IMAP beads, which also contain metal ions on the beads that bind to the phospho-groups of the products. Thus the phosphorylated product of the reaction can enter into close proximity to the tracer, producing resonance energy transfer. Due to the long lifetime of terbium (Tb) fluorescence the detection can be run in time resolved mode, which virtually eliminates fluorescence interference from assay components or compounds.
The TR-FRET signal measurement from this assay, given as an IC50 measurement, is a measure of a test compound's ability to interfere with the phosphorylation of the peptide substrate, that is it inhibits the phosphorylation of the substrate peptide by DYRK1A, and is thus a measure of the test compound's ability to inhibit the activity of DYRK1A.
1. Human DYRK1A: from Invitrogen. Part # PV3997
2. Substrate Peptide: […]
3. IMAP TR-FRET IPP Explorer Kit: from Molecular Devices. Part # R8157 4. Kinase Assay Buffer (KAB): 10 mM HEPES pH 7.0, 50 mM NaCl, 5 mM MgCl2, 1 mM DTT, 1 mM NaVO4, 200 μg/mL BSA (0.02%) 5. Assay Plate: Remp polypropylene clear 384-well microplate. […] Detection Plate: Costa black 384-well microplate. […] Transfer 1.5 μL of 20× compound solution to each well of an assay plate. 2. Add to each well 22.5 μL of KAB Buffer. 3. Add to each well 3 μL of the solution of DYRK1A and ATP. […] Add to each well 3 μL of the substrate peptide. The assay concentration is 1.0 μM 5. Incubate the assay plates at 37° C. for 60 minutes. 6. Add 18 μL of Detection Solution (1:800 diluted Progress bead stock, 1:400 diluted Tb stock, 80% Buffer A, and 20% Buffer B) into each well of detection plates. 7. Transfer 6 μL of assay solution from the assay plate to the detection plate. 8. Shake detection plates for 30 minutes. 9. Read plates in Envision with wavelength set at excitation 340 nm for Tb, emission 490 nm, and […].

Structure (SMILES) | EC50 [1] [nM] | IC50 [2] [nM] | IC50 [3] [nM]
COCCOc1cc2cc(C(=O)Nc3cc(C(=O)NCc4cccc(Cl)c4)ccc3C)c(=O)[nH]c2cc1OC [Example 52, 7-Methoxy-6-(2-methoxy-ethoxy)-2-oxo-1,2-dihydro-quinoline-3-carboxylic acid [5-(3-chloro-benzylcarbamoyl)-2-methyl-phenyl]-amide] | 780 | 181 | 118
COCCOc1cc2cc(C(=O)Nc3cc(C(=O)NC(CCN)c4ccccc4)ccc3Cl)c(=O)[nH]c2cc1OC (stereo not drawn) [Example 61, N-(5-(3-Amino-1-phenylpropylcarbamoyl)-2-chlorophenyl)-7-methoxy-6-(2-methoxyethoxy)-2-oxo-1,2-dihydroquinoline-3-carboxamide] | 470 | 11.5 | 15.7
COc1cc2cc(C(=O)Nc3cc(C(=O)NC(CCN)c4ccccc4)ccc3C)c(=O)[nH]c2cc1OC (stereo not drawn) [Example 35, 6,7-Dimethoxy-2-oxo-1,2-dihydro-quinoline-3-carboxylic acid [5-(3-amino-1-phenyl-propylcarbamoyl)-2-methyl-phenyl]-amide] | 2050 | 59.5 | 154
COCCOc1cc2cc(C(=O)Nc3cc(C(=O)NC(CCN)c4ccccc4)ccc3C)c(=O)[nH]c2cc1OC (stereo not drawn) [Example 38, 7-Methoxy-6-(2-methoxy-ethoxy)-2-oxo-1,2-dihydro-quinoline-3-carboxylic acid [5-(3-amino-1-phenyl-propylcarbamoyl)-2-methyl-phenyl]-amide] | 2760 | 44.8 | 34.7
COCCOc1cc2cc(C(=O)Nc3cc(C(=O)OC)ccc3C)c(=O)[nH]c2cc1OC [Example 23, 3-{[7-Methoxy-6-(2-methoxy-ethoxy)-2-oxo-1,2-dihydro-quinoline-3-carbonyl]-amino}-4-methyl-benzoic acid methyl ester] | > 10000 | 440 | 262
COCCOc1cc2cc(C(=O)Nc3cc(C(=O)N[C@H](CCN)c4ccccc4)ccc3Cl)c(=O)[nH]c2cc1OC [Example 63, (R)-N-(5-(3-Amino-1-phenylpropylcarbamoyl)-2-chlorophenyl)-7-methoxy-6-(2-methoxyethoxy)-2-oxo-1,2-dihydroquinoline-3-carboxamide] | 640 | 8 | 5
COCCOc1cc2cc(C(=O)Nc3cc(C(=O)N[C@H](CCN)c4ccccc4)ccc3C)c(=O)[nH]c2cc1OC (single isomer, unassigned) [Example 58] | 4040 | 29 | 9
COCCOc1cc2cc(C(=O)Nc3cc(C(=O)NC(CN)c4ccccc4)ccc3C)c(=O)[nH]c2cc1OC (stereo not drawn) [Example 37, 7-Methoxy-6-(2-methoxy-ethoxy)-2-oxo-1,2-dihydro-quinoline-3-carboxylic acid [5-(2-amino-1-phenyl-ethylcarbamoyl)-2-methyl-phenyl]-amide] | 1820 | 32.5 | 19.1
COc1cc2[nH]c(=O)c(C(=O)Nc3cc(C(=O)NCc4cccc(Cl)c4)ccc3C)cc2cc1OCCN1CCOCC1 [Example 43, 7-Methoxy-6-(2-morpholin-4-yl-ethoxy)-2-oxo-1,2-dihydro-quinoline-3-carboxylic acid [5-(3-chloro-benzylcarbamoyl)-2-methyl-phenyl]-amide] | 306 | 178 | 6
COc1cc2cc(C(=O)Nc3cc(C(=O)N[C@H](CO)c4ccccc4)ccc3C)c(=O)[nH]c2cc1OC [Example 57, (S)-N-(5-(2-Hydroxy-1-phenylethylcarbamoyl)-2-methylphenyl)-6,7-dimethoxy-2-oxo-1,2-dihydroquinoline-3-carboxamide] | 6500 | 883 | 186
COCCOc1cc2cc(C(=O)Nc3cc(C(=O)NC(CN)c4cccc(Cl)c4)ccc3Cl)c(=O)[nH]c2cc1OC (stereo not drawn) [Example 60, N-(5-(2-Amino-1-(3-chlorophenyl)ethylcarbamoyl)-2-chlorophenyl)-7-methoxy-6-(2-methoxyethoxy)-2-oxo-1,2-dihydroquinoline-3-carboxamide] | 200 | 21.7 | 14.3
COCCOc1cc2cc(C(=O)Nc3cc(C(=O)NC(CN)c4ccccc4)ccc3Cl)c(=O)[nH]c2cc1OC (stereo not drawn) [Example 62, N-(5-(2-Amino-1-phenylethylcarbamoyl)-2-chlorophenyl)-7-methoxy-6-(2-methoxyethoxy)-2-oxo-1,2-dihydroquinoline-3-carboxamide] | 440 | 29.1 | 11.4
COCCOc1cc2cc(C(=O)Nc3cc(C(=O)N[C@@H](CCN)c4ccccc4)ccc3Cl)c(=O)[nH]c2cc1OC [Example 64, (S)-N-(5-(3-Amino-1-phenylpropylcarbamoyl)-2-chlorophenyl)-7-methoxy-6-(2-methoxyethoxy)-2-oxo-1,2-dihydroquinoline-3-carboxamide] | 9200 | 253 | 186
COc1cc2cc(C(=O)Nc3cc(C(=O)NCc4ccccc4)ccc3C)c(=O)[nH]c2cc1OC [Example 42, 6,7-Dimethoxy-2-oxo-1,2-dihydro-quinoline-3-carboxylic acid (5-benzylcarbamoyl-2-methyl-phenyl)-amide] | > 10000 | 320 | 226
